Laboratory results from PubChem BioAssay (NCI).
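Test compounds were applied to cells in 96-well plates for 48 hours at 5 doses. Abbreviation: GI50, concentration required for 50% inhibition of growth. TGI denotes the concentration required for complete inhibition of growth.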

How the values were obtained:
Assay in all cases: inhibition of tumour cell growth, NCI panel, 48 h
SK-OV-3 ovarian = tested on: SK-OV-3 ovarian
MDA-MB-435 = tested on: MDA-MB-435
UO-31 renal = tested on: UO-31 renal
MALME-3M melanoma = tested on: MALME-3M melanoma
BT-549 breast = tested on: BT-549 breast
IGROV1 ovarian = tested on: IGROV1 ovarian
LOX IMVI melanoma = tested on: LOX IMVI melanoma
SK-MEL-2 melanoma = tested on: SK-MEL-2 melanoma
PC-3 prostate = tested on: PC-3 prostate
U251 CNS = tested on: U251 CNS
T-47D breast = tested on: T-47D breast
HS 578T breast = tested on: HS 578T breast
KM12 colon = tested on: KM12 colon
UACC-257 melanoma = tested on: UACC-257 melanoma
MOLT-4 leukemia = tested on: MOLT-4 leukemia
NCI/ADR-RES ovarian = tested on: NCI/ADR-RES ovarian
HCT-116 colon = tested on: HCT-116 colon
M14 melanoma = tested on: M14 melanoma
CAKI-1 renal = tested on: CAKI-1 renal
HT29 colon = tested on: HT29 colon
SNB-75 CNS = tested on: SNB-75 CNS
OVCAR-3 ovarian = tested on: OVCAR-3 ovarian
NCI-H23 lung = tested on: NCI-H23 lung
SW-620 colon = tested on: SW-620 colon
MDA-MB-231 breast = tested on: MDA-MB-231 breast
HCT-15 colon = tested on: HCT-15 colon
NCI-H226 lung = tested on: NCI-H226 lung
OVCAR-5 ovarian = tested on: OVCAR-5 ovarian
NCI-H460 lung = tested on: NCI-H460 lung
HOP-92 NSCLC = tested on: HOP-92 NSCLC
RXF 393 renal = tested on: RXF 393 renal
HL-60(TB) leukemia = tested on: HL-60(TB) leukemia
COLO 205 colon = tested on: COLO 205 colon
ACHN renal = tested on: ACHN renal
HOP-62 NSCLC = tested on: HOP-62 NSCLC
TK-10 renal = tested on: TK-10 renal
K-562 leukemia = tested on: K-562 leukemia
EKVX NSCLC = tested on: EKVX NSCLC
MCF7 breast = tested on: MCF7 breast
HCC-2998 colon = tested on: HCC-2998 colon
OVCAR-8 ovarian = tested on: OVCAR-8 ovarian
SN12C renal = tested on: SN12C renal
786-0 renal = tested on: 786-0 renal
A498 renal = tested on: A498 renal
OVCAR-4 ovarian = tested on: OVCAR-4 ovarian
NCI-H522 lung = tested on: NCI-H522 lung
SF-295 CNS = tested on: SF-295 CNS
UACC-62 melanoma = tested on: UACC-62 melanoma
RPMI-8226 leukemia = tested on: RPMI-8226 leukemia
SK-MEL-28 melanoma = tested on: SK-MEL-28 melanoma
A549 NSCLC = tested on: A549 NSCLC
SNB-19 CNS = tested on: SNB-19 CNS
SK-MEL-5 melanoma = tested on: SK-MEL-5 melanoma
CCRF-CEM leukemia = tested on: CCRF-CEM leukemia
DU-145 prostate = tested on: DU-145 prostate
SF-268 CNS = tested on: SF-268 CNS

For `NC(N)=NN=C(c1ccccc1)c1ccccc1`, the GI50 (SK-OV-3 ovarian) was 3.31 µM, the TGI (SK-OV-3 ovarian) was 23.7 µM and the GI50 (MDA-MB-435) was 0.612 µM. It also gave a TGI (MDA-MB-435) of 2.94 µM, a GI50 (UO-31 renal) of 4.48 µM and a TGI (UO-31 renal) of over 100 µM. For the same compound, the GI50 (MALME-3M melanoma) was 2.99 µM, the TGI (MALME-3M melanoma) was 19.1 µM and the GI50 (BT-549 breast) was 5.51 µM. It also gave a TGI (BT-549 breast) of 65.3 µM, a GI50 (IGROV1 ovarian) of 4.32 µM and a TGI (IGROV1 ovarian) of 87.6 µM. It also gave a GI50 (LOX IMVI melanoma) of 6.09 µM, a TGI (LOX IMVI melanoma) of 51.8 µM and a GI50 (SK-MEL-2 melanoma) of 2.16 µM. It also gave a TGI (SK-MEL-2 melanoma) of 13.9 µM, a GI50 (PC-3 prostate) of 2.95 µM and a TGI (PC-3 prostate) of over 100 µM. It also gave a GI50 (U251 CNS) of 3.5 µM, a TGI (U251 CNS) of 24.6 µM and a GI50 (T-47D breast) of 6.65 µM. It also gave a TGI (T-47D breast) of over 100 µM, a GI50 (HS 578T breast) of 1.78 µM and a TGI (HS 578T breast) of 7.91 µM. The GI50 (KM12 colon) was 2.53 µM, the TGI (KM12 colon) was 20 µM and the GI50 (UACC-257 melanoma) was 9.79 µM. For the same compound, the TGI (UACC-257 melanoma) was 41.9 µM, the GI50 (MOLT-4 leukemia) was 8.82 µM and the TGI (MOLT-4 leukemia) was 91.7 µM. For the same compound, the GI50 (NCI/ADR-RES ovarian) was 19.7 µM, the TGI (NCI/ADR-RES ovarian) was over 100 µM and the GI50 (HCT-116 colon) was 3.53 µM. For the same compound, the TGI (HCT-116 colon) was 89.7 µM, the GI50 (M14 melanoma) was 2.64 µM and the TGI (M14 melanoma) was 9.3 µM. For the same compound, the GI50 (CAKI-1 renal) was 3.77 µM, the TGI (CAKI-1 renal) was over 100 µM and the GI50 (HT29 colon) was 2.89 µM. The TGI (HT29 colon) was 17.8 µM, the GI50 (SNB-75 CNS) was 3.49 µM and the TGI (SNB-75 CNS) was over 100 µM. It also gave a GI50 (OVCAR-3 ovarian) of 2.15 µM, a TGI (OVCAR-3 ovarian) of 5.49 µM and a GI50 (NCI-H23 lung) of 6.04 µM. The TGI (NCI-H23 lung) was over 100 µM, the GI50 (SW-620 colon) was 3.63 µM and the TGI (SW-620 colon) was 41.5 µM. The GI50 (MDA-MB-231 breast) was 4.3 µM, the TGI (MDA-MB-231 breast) was 40.8 µM and the GI50 (HCT-15 colon) was 3.25 µM. The TGI (HCT-15 colon) was over 100 µM, the GI50 (NCI-H226 lung) was 14.1 µM and the TGI (NCI-H226 lung) was over 100 µM. It also gave a GI50 (OVCAR-5 ovarian) of 7.94 µM, a TGI (OVCAR-5 ovarian) of over 100 µM and a GI50 (NCI-H460 lung) of 3.51 µM. It also gave a TGI (NCI-H460 lung) of 17.3 µM, a GI50 (HOP-92 NSCLC) of 2.14 µM and a TGI (HOP-92 NSCLC) of 55.1 µM. For the same compound, the GI50 (RXF 393 renal) was 1.71 µM, the TGI (RXF 393 renal) was 3.93 µM and the GI50 (HL-60(TB) leukemia) was 3.11 µM. The TGI (HL-60(TB) leukemia) was 12.1 µM, the GI50 (COLO 205 colon) was 1.91 µM and the TGI (COLO 205 colon) was 4.19 µM. For the same compound, the GI50 (ACHN renal) was 4.13 µM, the TGI (ACHN renal) was over 100 µM and the GI50 (HOP-62 NSCLC) was 6.75 µM. It also gave a TGI (HOP-62 NSCLC) of over 100 µM, a GI50 (TK-10 renal) of 5.75 µM and a TGI (TK-10 renal) of over 100 µM. For the same compound, the GI50 (K-562 leukemia) was 4.35 µM, the TGI (K-562 leukemia) was 27.5 µM and the GI50 (EKVX NSCLC) was 6.82 µM. For the same compound, the TGI (EKVX NSCLC) was over 100 µM, the GI50 (MCF7 breast) was 2.28 µM and the TGI (MCF7 breast) was 41.7 µM. It also gave a GI50 (HCC-2998 colon) of 4.49 µM, a TGI (HCC-2998 colon) of 20.4 µM and a GI50 (OVCAR-8 ovarian) of 3.87 µM. For the same compound, the TGI (OVCAR-8 ovarian) was 39.8 µM, the GI50 (SN12C renal) was 6.25 µM and the TGI (SN12C renal) was over 100 µM. It also gave a GI50 (786-0 renal) of 4.71 µM, a TGI (786-0 renal) of 36.2 µM and a GI50 (A498 renal) of 3.49 µM. The TGI (A498 renal) was over 100 µM, the GI50 (OVCAR-4 ovarian) was 5.16 µM and the TGI (OVCAR-4 ovarian) was 93.6 µM. For the same compound, the GI50 (NCI-H522 lung) was 2.38 µM, the TGI (NCI-H522 lung) was 8.51 µM and the GI50 (SF-295 CNS) was 2.9 µM. It also gave a TGI (SF-295 CNS) of 16 µM, a GI50 (UACC-62 melanoma) of 4.64 µM and a TGI (UACC-62 melanoma) of 42.5 µM. It also gave a GI50 (RPMI-8226 leukemia) of 3.97 µM, a TGI (RPMI-8226 leukemia) of 17.8 µM and a GI50 (SK-MEL-28 melanoma) of 5.82 µM. For the same compound, the TGI (SK-MEL-28 melanoma) was 36.9 µM, the GI50 (A549 NSCLC) was 4.03 µM and the TGI (A549 NSCLC) was over 100 µM. For the same compound, the GI50 (SNB-19 CNS) was 7.69 µM, the TGI (SNB-19 CNS) was over 100 µM and the GI50 (SK-MEL-5 melanoma) was 3.06 µM. It also gave a TGI (SK-MEL-5 melanoma) of 14.7 µM, a GI50 (CCRF-CEM leukemia) of 4.38 µM and a TGI (CCRF-CEM leukemia) of over 100 µM. For the same compound, the GI50 (DU-145 prostate) was 3.45 µM, the TGI (DU-145 prostate) was over 100 µM and the GI50 (SF-268 CNS) was 6.8 µM. For the same compound, the TGI (SF-268 CNS) was over 100 µM.
